# Source: patent US10624968B2, “Compounds for treating cancer” (Bicycle Therapeutics Limited, priority 2017, dated 2020)
# Starred links: 1 amine or outer side, 2 acyl side, 3 side chain; linkers in the order of their positions; H or OH if unused. Positions of bridges follow the written chain, without caps; N, C: chain ends. Non-standard residues stand in square brackets, D forms with d. Residues, ends and D or L forms follow the SMILES beside them. ξ: configuration not given here. *: point of attachment. X4 = COc1cc2cc(c1Cl)N(C)C(=O)C[C@H](OC(=O)[C@H](C)N(C)C(=O)CCN(C)*)[C@]1(C)O[C@H]1[C@H](C)[C@@H]1C[C@@](O)(NC(=O)O1)[C@H](OC)/C=C/C=C(\C)C2; 1Nal = N[C@@H](Cc1cccc2ccccc12)C(=O)O; TBMB = c1c(C[*:1])cc(C[*:3])cc1C[*:2]; PABC = O=C(OCc1ccc(N[*:1])cc1)[*:2]; Glutaryl = O=C(CCCC(=O)[*:2])[*:1]; ξ1Nal = NC(Cc1cccc2ccccc12)C(=O)O; Cit = NC(=O)NCCC[C@H](N)C(=O)O; Tle = CC(C)(C)[C@H](N)C(=O)O; ξY = NC(Cc1ccc(O)cc1)C(=O)O; ξTle = CC(C)(C)C(N)C(=O)O; ξF = NC(Cc1ccccc1)C(=O)O; ξE = NC(CCC(=O)O)C(=O)O; ξD = NC(CC(=O)O)C(=O)O; ξN = NC(=O)CC(N)C(=O)O; ξC = NC(CS)C(=O)O; βAla = NCCC(=O)O; ξA = CC(N)C(=O)O; Sar = CNCC(=O)O
# What was measured:
# [1] = Mortality, morbidity and body weight in HT1080 xenograft study (Example 13); assay type: in vivo, mouse
# Description: (§1) All the procedures related to animal handling, care and the treatment in the study were performed following the guidance of the Association for Assessment and Accreditation of Laboratory Animal Care (AAALAC). At the time of routine monitoring, the animals were daily checked for any effects of tumor growth and treatments on normal behavior such as mobility, food and water consumption (by looking only), body weight gain/loss (body weights were measured every day), eye/hair matting and any other abnormal effect as stated in the protocol. Death and observed clinical signs were recorded on the basis of the numbers of animals within each subset.
# Body weight was monitored regularly as an indirect measure of toxicity.
# [2] = molecular target: MMP15 (Homo sapiens, UniProt P51511); test: Binding to related MMP family members
# MMP15, sequence (P51511 132-669, species assumed): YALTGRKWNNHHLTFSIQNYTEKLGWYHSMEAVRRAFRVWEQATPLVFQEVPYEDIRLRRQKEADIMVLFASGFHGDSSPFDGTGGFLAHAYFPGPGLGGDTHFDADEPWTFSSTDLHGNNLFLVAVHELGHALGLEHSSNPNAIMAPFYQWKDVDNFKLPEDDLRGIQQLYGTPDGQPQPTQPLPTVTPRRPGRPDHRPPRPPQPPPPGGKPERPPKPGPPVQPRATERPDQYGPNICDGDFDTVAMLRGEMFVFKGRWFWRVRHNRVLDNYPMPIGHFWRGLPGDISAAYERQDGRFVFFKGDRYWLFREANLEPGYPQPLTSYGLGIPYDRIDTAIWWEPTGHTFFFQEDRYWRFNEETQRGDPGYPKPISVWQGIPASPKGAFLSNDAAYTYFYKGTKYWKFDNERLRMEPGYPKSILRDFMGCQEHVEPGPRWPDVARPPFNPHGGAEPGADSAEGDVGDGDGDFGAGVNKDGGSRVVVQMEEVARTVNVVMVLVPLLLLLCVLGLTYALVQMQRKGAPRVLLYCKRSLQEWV
# [3] = molecular target: MMP24 (Homo sapiens, UniProt Q9Y5R2); test: Binding to related MMP family members
# MMP24, sequence (Q9Y5R2 156-645, species assumed): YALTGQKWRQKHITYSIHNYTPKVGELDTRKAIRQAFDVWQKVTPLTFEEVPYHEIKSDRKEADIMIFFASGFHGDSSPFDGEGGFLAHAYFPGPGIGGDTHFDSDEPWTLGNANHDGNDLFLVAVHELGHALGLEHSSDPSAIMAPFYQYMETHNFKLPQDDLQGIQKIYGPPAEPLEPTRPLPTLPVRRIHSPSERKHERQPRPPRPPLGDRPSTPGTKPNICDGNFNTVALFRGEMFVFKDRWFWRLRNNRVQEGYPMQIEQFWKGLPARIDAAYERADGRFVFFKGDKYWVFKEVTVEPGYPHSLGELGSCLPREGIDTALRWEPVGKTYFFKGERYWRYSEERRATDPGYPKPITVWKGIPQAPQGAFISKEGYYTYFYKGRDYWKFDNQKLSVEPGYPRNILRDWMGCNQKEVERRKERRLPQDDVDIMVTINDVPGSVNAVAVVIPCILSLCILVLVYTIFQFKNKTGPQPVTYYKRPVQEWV
# [4] = molecular target: MMP16 (Homo sapiens, UniProt P51512); test: Binding to related MMP family members
# MMP16, sequence (P51512 120-607, species assumed): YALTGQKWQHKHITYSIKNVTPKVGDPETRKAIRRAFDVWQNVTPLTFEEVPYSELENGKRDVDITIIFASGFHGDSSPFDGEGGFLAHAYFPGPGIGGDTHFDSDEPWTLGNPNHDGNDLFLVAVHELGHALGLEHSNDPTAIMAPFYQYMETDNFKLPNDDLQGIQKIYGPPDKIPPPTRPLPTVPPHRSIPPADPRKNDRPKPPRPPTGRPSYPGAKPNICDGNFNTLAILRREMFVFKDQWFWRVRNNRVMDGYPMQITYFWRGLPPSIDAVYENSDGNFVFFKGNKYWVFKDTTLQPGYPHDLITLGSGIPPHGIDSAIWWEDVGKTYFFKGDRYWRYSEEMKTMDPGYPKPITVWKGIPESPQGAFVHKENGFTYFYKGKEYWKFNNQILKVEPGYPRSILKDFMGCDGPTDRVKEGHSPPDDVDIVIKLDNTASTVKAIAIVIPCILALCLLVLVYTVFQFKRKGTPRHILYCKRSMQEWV
# [5] = system: cell migration or invasion; test: Effect on cell migration or invasion; assay type: cell-based
# [6] = molecular target: MT1 (Homo sapiens, UniProt P50281); test: Effect on catalytic activity of the protease in vitro; assay type: biochemical
# [7] = molecular target: T1, MMP1 (Homo sapiens, UniProt P03956); test: Effect on related MMP catalytic activity; assay type: biochemical
# T1 sequence (P03956 100-469, species assumed): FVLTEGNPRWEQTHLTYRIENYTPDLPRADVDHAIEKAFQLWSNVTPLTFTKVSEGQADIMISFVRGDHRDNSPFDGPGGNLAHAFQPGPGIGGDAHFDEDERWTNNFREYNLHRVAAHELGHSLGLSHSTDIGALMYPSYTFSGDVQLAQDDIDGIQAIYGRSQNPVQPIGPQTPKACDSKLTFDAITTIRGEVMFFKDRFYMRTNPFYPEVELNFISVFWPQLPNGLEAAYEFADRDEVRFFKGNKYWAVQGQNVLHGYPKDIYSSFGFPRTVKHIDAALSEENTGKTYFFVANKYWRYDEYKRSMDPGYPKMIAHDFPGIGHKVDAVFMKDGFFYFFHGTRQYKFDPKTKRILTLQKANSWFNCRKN
# [8] = molecular target: MMP9 (Homo sapiens, UniProt P14780); test: Effect on related MMP catalytic activity; assay type: biochemical
# MMP9, sequence (P14780 94-707, species assumed): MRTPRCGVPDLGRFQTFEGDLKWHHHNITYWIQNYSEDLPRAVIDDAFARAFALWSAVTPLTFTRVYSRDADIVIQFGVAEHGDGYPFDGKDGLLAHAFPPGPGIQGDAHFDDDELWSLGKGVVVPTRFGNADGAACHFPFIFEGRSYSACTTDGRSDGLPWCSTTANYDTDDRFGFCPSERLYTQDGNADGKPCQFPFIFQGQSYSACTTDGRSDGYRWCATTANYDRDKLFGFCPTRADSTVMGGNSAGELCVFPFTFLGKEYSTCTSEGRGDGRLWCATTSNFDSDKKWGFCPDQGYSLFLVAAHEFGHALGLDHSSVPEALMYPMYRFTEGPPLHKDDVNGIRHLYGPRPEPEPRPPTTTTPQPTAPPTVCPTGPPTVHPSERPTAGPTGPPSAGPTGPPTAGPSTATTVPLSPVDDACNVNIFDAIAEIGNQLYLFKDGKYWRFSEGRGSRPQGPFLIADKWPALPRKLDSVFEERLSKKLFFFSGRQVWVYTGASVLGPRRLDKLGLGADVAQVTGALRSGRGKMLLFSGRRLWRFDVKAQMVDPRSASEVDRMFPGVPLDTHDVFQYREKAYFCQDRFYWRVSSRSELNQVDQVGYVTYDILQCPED
# [9] = molecular target: hemopexin domain of MT1 (Homo sapiens, UniProt P50281); test: Bicycle peptide binding to hemopexin domain of MT1; details: read-out: apparent Kd
# [10] = molecular target: T2, MMP2 (Homo sapiens, UniProt P08253); test: Binding to related MMP family members
# T2 sequence (P08253 110-660, species assumed): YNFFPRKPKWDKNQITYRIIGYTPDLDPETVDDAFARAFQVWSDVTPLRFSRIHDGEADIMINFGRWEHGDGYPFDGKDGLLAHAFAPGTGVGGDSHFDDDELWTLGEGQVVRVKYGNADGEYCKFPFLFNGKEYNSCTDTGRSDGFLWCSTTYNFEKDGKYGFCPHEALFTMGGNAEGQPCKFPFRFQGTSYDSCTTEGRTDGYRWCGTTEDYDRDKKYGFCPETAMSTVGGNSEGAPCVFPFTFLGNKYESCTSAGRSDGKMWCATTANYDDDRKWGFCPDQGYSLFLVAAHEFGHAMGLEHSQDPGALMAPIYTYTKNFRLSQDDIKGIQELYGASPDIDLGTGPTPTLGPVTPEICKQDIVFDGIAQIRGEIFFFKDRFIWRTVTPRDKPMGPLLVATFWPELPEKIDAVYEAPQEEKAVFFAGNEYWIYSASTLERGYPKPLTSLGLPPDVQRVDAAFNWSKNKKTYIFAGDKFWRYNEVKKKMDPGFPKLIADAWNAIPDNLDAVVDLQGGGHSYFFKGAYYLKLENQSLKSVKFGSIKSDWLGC
# [11] = molecular target: T1, MMP1; test: Binding to related MMP family members
# [12] = system: catalytic domain of MT1; test: Bicycle peptide binding to catalytic domain
# [13] = molecular target: T2, MMP2; test: Effect on related MMP catalytic activity; assay type: biochemical
# [14] = molecular target: T3, Pro-MMP1 (Homo sapiens, UniProt P03956); test: Binding to related MMP family members
# T3 construct: (MMP15, MMP16, MMP24, MMP1, Pro-MMP1, MMP2)
# T3 sequence (P03956 20-469 limits assumed): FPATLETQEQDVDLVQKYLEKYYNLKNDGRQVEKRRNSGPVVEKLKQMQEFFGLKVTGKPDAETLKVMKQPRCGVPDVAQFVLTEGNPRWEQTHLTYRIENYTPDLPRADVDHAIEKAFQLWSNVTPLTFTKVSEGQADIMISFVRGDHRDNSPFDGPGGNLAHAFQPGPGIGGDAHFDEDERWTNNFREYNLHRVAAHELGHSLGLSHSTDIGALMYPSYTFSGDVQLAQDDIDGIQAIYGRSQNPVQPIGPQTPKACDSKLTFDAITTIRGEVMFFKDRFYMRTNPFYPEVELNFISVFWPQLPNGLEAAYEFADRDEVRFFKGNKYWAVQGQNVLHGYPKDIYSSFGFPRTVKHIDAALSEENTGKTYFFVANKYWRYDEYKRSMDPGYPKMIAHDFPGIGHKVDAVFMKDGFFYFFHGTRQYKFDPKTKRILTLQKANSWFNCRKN
# [15] = Tolerability (body weight) in LU-01-0486 NSCLC PDX model; assay type: in vivo, mouse; details: dose not given; humane sacrifice of animals at day 24
# Description: as §1, with “twice weekly),” for “every day),”
# [16] = system: LU-01-0486 PDX; test: Efficacy in MT1-MMP low-expressing LU-01-0486 NSCLC PDX model; assay type: in vivo, mouse; details: dose not given
# Description: The objective of this study was to evaluate the in vivo anti-tumor efficacy of I-1a in the treatment of MT1-MMP low-expressing LU-01-0486 PDX model in female Balb/C nude mice
# Each mouse was inoculated subcutaneously at the right flank with LU-01-0486 of tumor fragment (30 mm^3) for tumor development. The treatments was started when the average tumor volume reaches 164 mm^3.
# The major endpoint was to see if the tumor growth could be delayed or mice could be cured. Tumor size was measured two times weekly in two dimensions using a caliper, and the volume was expressed in mm^3 using the formula: V=0.5 a×b^2 where a and b are the long and short diameters of the tumor, respectively. […]
# TGI was calculated for each group using the formula: TGI (%)=[1−(Ti−T0)/(Vi−V0)]×100; Ti is the average tumor volume of a treatment group on a given day, T0 is the average tumor volume of the treatment group on the day of treatment start, Vi is the average tumor volume of the vehicle control group on the same day with Ti, and V0 is the average tumor volume of the vehicle group on the day of treatment start.
# A one-way ANOVA was performed to compare tumor volume among groups, and when a significant F-statistics (a ratio of treatment variance to the error variance) was obtained, comparisons between groups were carried out with Games-Howell test. All data were analyzed using Prism. […]
# [17] = system: MT1-positive tumor xenografts; details: mouse, in vivo, iv
# [18] = molecular target: MT1-MMP (Homo sapiens, UniProt P50281); test: MT1-MMP fluorescent polarization competition; assay type: binding; details: up to 20 μM
molecule,measurement,setting,value
COc1cc2cc(c1Cl)N(C)C(=O)C[C@H](OC(=O)[C@H](C)N(C)C(=O)CCN(C)C(=O)OCc1ccc(NC(=O)[C@H](CCCNC(N)=O)NC(=O)[C@@H](NC(=O)CCCC(=O)NCCC(=O)N(C)CC(=O)N(C)CC(=O)N(C)CC(=O)N(C)CC(=O)N(C)CC(=O)N(C)CC(=O)N(C)CC(=O)N(C)CC(=O)N(C)CC(=O)N(C)CC(=O)NC(C)C(=O)NC3CSCc4cc5cc(c4)CSCC(NC(=O)C(C)NC(=O)C(Cc4cccc6ccccc46)NC(=O)C(CCC(=O)O)NC(=O)C(CC(N)=O)NC(=O)C(C)NC3=O)C(=O)NC(C)C(=O)NC(CC(=O)O)C(=O)NC(Cc3ccccc3)C(=O)NC(Cc3ccc(O)cc3)C(=O)NC(CC(=O)O)C(=O)NC(C(C)(C)C)C(=O)NC(C(N)=O)CSC5)C(C)C)cc1)[C@]1(C)O[C@H]1[C@H](C)[C@@H]1C[C@@](O)(NC(=O)O1)[C@H](OC)/C=C/C=C(\C)C2 (stereo partly drawn) [Compound I-8] ({X4-PABC-Cit-Val-Glutaryl-βAla}-[Sar][Sar][Sar][Sar][Sar][Sar][Sar][Sar][Sar][Sar][ξA][ξC][ξA][ξN][ξE][ξ1Nal][ξA][ξC][ξA][ξD][ξF][ξY][ξD][ξTle][ξC]-NH2; linker 12-18-25 via TBMB),mouse with severe tumor ulceration,[1]; 1 mg/kg biw,1/3
same,mouse died at day 14,[1]; 3 mg/kg biw,1/3
C[C@H](NC(=O)CN(C)C(=O)CN(C)C(=O)CN(C)C(=O)CN(C)C(=O)CN(C)C(=O)CN(C)C(=O)CN(C)C(=O)CN(C)C(=O)CN(C)C(=O)CN(C)C(=O)CCN)C(=O)N[C@H]1CSCc2cc3cc(c2)CSC[C@H](NC(=O)[C@@H](C)NC(=O)[C@H](Cc2cccc4ccccc24)NC(=O)[C@H](CCC(=O)O)NC(=O)[C@H](CC(N)=O)NC(=O)[C@@H](C)NC1=O)C(=O)N[C@@H](CCC(=O)O)C(=O)N[C@@H](CC(=O)O)C(=O)N[C@@H](Cc1ccccc1)C(=O)N[C@@H](Cc1ccc(O)cc1)C(=O)N[C@@H](CC(=O)O)C(=O)N[C@@H](C(C)(C)C)C(=O)N[C@H](C(N)=O)CSC3 [Compound N241] (H-[βAla][Sar][Sar][Sar][Sar][Sar][Sar][Sar][Sar][Sar][Sar]AC[dA]NE[1Nal][dA]CEDFYD[Tle]C-NH2; linker 13-19-26 via TBMB; N-terminus and C-terminus assumed),binding (in words),[2],no binding
same,binding (in words),[3],no binding
same,binding (in words),[4],no binding
same,impact on cell migration or invasion (in words),[5],no direct impact
same,impact on catalytic activity (in words),[6],no direct impact
same,impact on catalytic activity (in words),[7],no direct impact
same,impact on catalytic activity (in words),[8],no direct impact
same,Kd,[9],~2 nM
same,binding (in words),[10],no binding
same,binding (in words),[11],no binding
same,binding (in words),[12],no binding
same,impact on catalytic activity (in words),[13],no direct impact
same,binding (in words),[14],no binding
CC(=O)O[C@@]12CO[C@@H]1C[C@H](O)[C@@]1(C)C(=O)[C@H](O)C3=C(C)[C@@H](OC(=O)[C@H](O)[C@@H](NC(=O)OC(C)(C)C)c4ccccc4)C[C@@](O)([C@@H](OC(=O)c4ccccc4)[C@H]21)C3(C)C [Docetaxel],effect on body weight (in words),[15],severe weight loss
same,inhibition of tumor growth (in words),[16],significant inhibition of tumor growth
"C[C@H](NC(=O)CN(C)C(=O)CN(C)C(=O)CN(C)C(=O)CN(C)C(=O)CN(C)C(=O)CN(C)C(=O)CN(C)C(=O)CN(C)C(=O)CN(C)C(=O)CN(C)C(=O)CCN)C(=O)N[C@H]1CSCc2cc3cc(c2)CSC[C@H](NC(=O)[C@@H](C)NC(=O)[C@H](Cc2cccc4ccccc24)NC(=O)[C@H](CCC(=O)O)NC(=O)[C@H](CC(N)=O)NC(=O)[C@@H](C)NC1=O)C(=O)N[C@@H](CCC(=O)O)C(=O)N[C@@H](CC(=O)O)C(=O)N[C@@H](Cc1ccccc1)C(=O)N[C@@H](Cc1ccc(O)cc1)C(=O)N[C@@H](CC(=O)O)C(=O)N[C@@H](C(C)(C)C)C(=O)N[C@H](C(N)=O)CSC3 [^177Lu-loaded N241, metal not drawn] (H-[βAla][Sar][Sar][Sar][Sar][Sar][Sar][Sar][Sar][Sar][Sar]AC[dA]NE[1Nal][dA]CEDFYD[Tle]C-NH2; linker 13-19-26 via TBMB; N-terminus and C-terminus assumed)",tumor localization (in words),[17],rapid tumor localization
(B-Ala)-Sar10-ACVPCADFPIWYC (SEQ ID NO: 17) (AXXXXXXXXXXACVPCADFPIWYC; not fully specified; N-methyl; non-natural residues) [non-binding peptide],inhibition in MT1-MMP fluorescent polarization competition,[18],no inhibition
